# Experimental data from patent US12421240B2, “Hydropyrazino[1,2-d][1,4]diazepine compounds for the treatment of autoimmune disease” (Hoffmann-La Roche Inc., priority 2019, dated 2025).
# Molecular target: T1, human TLR7 (Homo sapiens, UniProt Q9NYK1)
# T1 sequence (Q9NYK1 27-1049): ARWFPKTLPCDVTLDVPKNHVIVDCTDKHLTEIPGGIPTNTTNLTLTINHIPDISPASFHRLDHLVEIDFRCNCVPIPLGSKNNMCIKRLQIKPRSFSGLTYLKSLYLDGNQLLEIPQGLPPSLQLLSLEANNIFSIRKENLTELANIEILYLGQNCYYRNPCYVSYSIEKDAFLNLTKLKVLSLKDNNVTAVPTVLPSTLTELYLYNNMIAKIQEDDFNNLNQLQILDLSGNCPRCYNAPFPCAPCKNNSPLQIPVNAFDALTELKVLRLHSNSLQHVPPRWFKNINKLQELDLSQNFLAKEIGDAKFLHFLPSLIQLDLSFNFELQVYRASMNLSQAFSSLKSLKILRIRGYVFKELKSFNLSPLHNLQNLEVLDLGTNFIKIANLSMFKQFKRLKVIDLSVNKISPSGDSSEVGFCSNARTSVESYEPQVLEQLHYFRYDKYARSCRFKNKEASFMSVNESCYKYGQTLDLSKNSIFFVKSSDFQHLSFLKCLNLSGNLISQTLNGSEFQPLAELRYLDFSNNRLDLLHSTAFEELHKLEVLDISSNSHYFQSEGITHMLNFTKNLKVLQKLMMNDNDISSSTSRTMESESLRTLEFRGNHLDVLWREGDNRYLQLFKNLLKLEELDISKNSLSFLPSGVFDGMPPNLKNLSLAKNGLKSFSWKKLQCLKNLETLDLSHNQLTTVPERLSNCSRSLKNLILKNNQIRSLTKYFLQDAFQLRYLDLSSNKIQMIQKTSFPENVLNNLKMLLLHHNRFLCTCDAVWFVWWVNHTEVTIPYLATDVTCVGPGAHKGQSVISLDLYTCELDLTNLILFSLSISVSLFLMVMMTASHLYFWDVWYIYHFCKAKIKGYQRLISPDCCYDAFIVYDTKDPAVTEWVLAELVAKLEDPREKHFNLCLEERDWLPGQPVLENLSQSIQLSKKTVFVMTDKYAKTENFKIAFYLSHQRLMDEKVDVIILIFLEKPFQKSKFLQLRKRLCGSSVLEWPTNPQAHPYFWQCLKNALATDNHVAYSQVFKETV
# Assay: HEK293-Blue-hTLR-7 cells assay (SEAP reporter, R848 stimulation)
# Assay type: cell-based
# Conditions: HEK293-Blue-hTLR7 cells, R848 ligand, 20 hrs; read-out: HEK/hTLR7 IC50
# Procedure: The following tests were carried out in order to determine the activity of the compounds of formula (I), (Ia) or (Ib) in HEK293-Blue-hTLR-7/8/9 cells assay.
# HEK293-Blue-hTLR-7 Cells Assay:
# A stable HEK293-Blue-hTLR-7 cell line was purchased from InvivoGen (Cat. #: hkb-htlr7, San Diego, California, USA). These cells were originally designed for studying the stimulation of human TLR7 by monitoring the activation of NF-κB. A SEAP (secreted embryonic alkaline phosphatase) reporter gene was placed under the control of the IFN-β minimal promoter fused to five NF-κB and AP-1-binding sites. The SEAP was induced by activating NF-κB and AP-1 via stimulating HEK-Blue hTLR7 cells with TLR7 ligands. Therefore the reporter expression was declined by TLR7 antagonist under the stimulation of a ligand, such as R848 (Resiquimod), for incubation of 20 hrs. The cell culture supernatant SEAP reporter activity was determined using QUANTI-Blue™ kit (Cat. #: rep-qb1, Invivogen, San Diego, Ca., USA) at a wavelength of 640 nm, a detection medium that turns purple or blue in the presence of alkaline phosphatase.
# HEK293-Blue-hTLR7 cells were incubated at a density of 250,000-450,000 cells/mL in a volume of 170 μL in a 96-well plate in Dulbecco's Modified Eagle's medium (DMEM) containing 4.5 g/L glucose, 50 U/mL penicillin, […], […], 2 mM L-glutamine, 10% (v/v) heat-inactivated fetal bovine serum with addition of 20 μL test compound in a serial dilution in the presence of final DMSO at 1% and 10 μL of 20 uM R848 in above DMEM, perform incubation under 37° C. in a CO2 incubator for 20 hrs. Then 20 μL of the supernatant from each well was incubated with 180 μL Quanti-blue substrate solution at 37° C. for 2 hrs and the absorbance was read at 620655 nm using a spectrophotometer. The signaling pathway that TLR7 activation leads to downstream NF-κB activation has been widely accepted, and therefore similar reporter assay was modified for evaluating TLR7 antagonist.
row,IC50 [nM],SMILES
1,1.6,"C[C@@H]1CN(c2ccc(C#N)c3ncccc23)C[C@@H]2CCN(Cc3ccc(N4C[C@@H](N)[C@@H](F)C4)cn3)CCN21 [Example 20, 5-[(4R,10aS)-8-[[5-[(3R,4S)-3-amino-4-fluoro-pyrrolidin-1-yl]-2-pyridyl]methyl]-4-methyl-1,3,4,6,7,9,10,10a-octahydropyrazino[1,2-d][1,4]diazepin-2-yl]quinoline-8-carbonitrile]"
2,59.9,"C[C@@H]1CN(c2ccc(C#N)c3ncccc23)C[C@@H]2CCN(Cc3ccc(N4CCOC[C@H](N)C4)cn3)CCN21 [Example 21, 5-[(4R,10aS)-8-[[5-[(6R)-6-amino-1,4-oxazepan-4-yl]-2-pyridyl]methyl]-4-methyl-1,3,4,6,7,9,10,10a-octahydropyrazino[1,2-d][1,4]diazepin-2-yl]quinoline-8-carbonitrile]"
3,4.9,"CO[C@@H]1CN(c2ccc(CN3CC[C@H]4CN(c5ccc(C#N)c6ncccc56)C[C@@H](C)N4CC3)nc2)C[C@H]1N [Example 22, 5-[(4R,10aS)-8-[[5-[(3R,4R)-3-amino-4-methoxy-pyrrolidin-1-yl]-2-pyridyl]methyl]-4-methyl-1,3,4,6,7,9,10,10a-octahydropyrazino[1,2-d][1,4]diazepin-2-yl]quinoline-8-carbonitrile]"
4,2.9,"C[C@@H]1CN(c2ccc(C#N)c3ncccc23)C[C@@H]2CCN(Cc3ncc(N4CCNCC4)cc3F)CCN21 [Example 23, 5-[(4R,10aS)-8-[(3-fluoro-5-piperazin-1-yl-2-pyridyl)methyl]-4-methyl-1,3,4,6,7,9,10,10a-octahydropyrazino[1,2-d][1,4]diazepin-2-yl]quinoline-8-carbonitrile]"
5,3.2,"CO[C@@H]1CN(c2cnc(CN3CC[C@H]4CN(c5ccc(C#N)c6ncccc56)C[C@@H](C)N4CC3)c(F)c2)C[C@H]1N [Example 24, 5-[(4R,10aS)-8-[[5-[(3R,4R)-3-amino-4-methoxy-pyrrolidin-1-yl]-3-fluoro-2-pyridyl]methyl]-4-methyl-1,3,4,6,7,9,10,10a-octahydropyrazino[1,2-d][1,4]diazepin-2-yl]quinoline-8-carbonitrile]"
6,35.8,"CO[C@@H]1CN(c2cnc(CN3CC[C@H]4CN(c5ccc(C#N)n6nccc56)C[C@@H](C)N4CC3)c(F)c2)C[C@H]1N [Example 26, 4-[(4R,10aS)-8-[[5-[(3R,4R)-3-amino-4-methoxy-pyrrolidin-1-yl]-3-fluoro-2-pyridyl]methyl]-4-methyl-1,3,4,6,7,9,10,10a-octahydropyrazino[1,2-d][1,4]diazepin-2-yl]pyrazolo[1,5-a]pyridine-7-carbonitrile]"
7,8.5,"CO[C@@H]1CN(c2cnc(CN3CC[C@H]4CN(c5ccc(C#N)n6ncc(F)c56)C[C@@H](C)N4CC3)c(F)c2)C[C@H]1N [Example 27, 4-[(4R,10aS)-8-[[5-[(3R,4R)-3-amino-4-methoxy-pyrrolidin-1-yl]-3-fluoro-2-pyridyl]methyl]-4-methyl-1,3,4,6,7,9,10,10a-octahydropyrazino[1,2-d][1,4]diazepin-2-yl]-3-fluoro-pyrazolo[1,5-a]pyridine-7-carbonitrile]"
8,36.3,"C[C@@H]1CN(c2cc(=O)n(C)c3ncccc23)C[C@@H]2CCN(Cc3ccc4c(c3)CNCC4)CCN21 [Example 28, 4-[(4R,10aS)-4-methyl-8-(1,2,3,4-tetrahydroisoquinolin-7-ylmethyl)-1,3,4,6,7,9,10,10a-octahydropyrazino[1,2-d][1,4]diazepin-2-yl]-1-methyl-1,8-naphthyridin-2-one]"
